According to US12520840B2, “Method for reducing parasite burden in a mosquito” (PRESIDENT AND FELLOWS OF HARVARD COLLEGE, priority 2018, dated 2026):
“Also recorded” adds a separate entry of the source.

Tests used:
P. falciparum = assay: Plasmodium falciparum infection assay in An. gambiae females after tarsal exposure to a compound-coated surface (oocyst prevalence and intensity); type: in vivo, Plasmodium falciparum (NF54) in Anopheles gambiae; conditions: for effect on prevalence of P. falciparum relative to controls / reduction of oocyst prevalence relative to controls: 1 mmol/m2, 6 minutes exposure
Procedure: (§1) Compound Exposures. Compounds (ATQ, ACE, HYD, PYR, PER, Millipore-Sigma, St. Louis, MO, USA) to be tested were dissolved in a suitable, volatile vehicle (Table S1) at stock concentrations of 3-10 mg/ml (0.3-1% w/v). Working concentrations of each compound were created through serial dilutions. To generate a compound-coated surface, a volume of working solution containing a known quantity of compound was added to 1 ml excess vehicle and transferred to a 6 cm diameter glass petri dish ([…]). Treated dishes were placed on a lateral shaker and left for 4 h or overnight until evaporation of the volatile vehicle, coating the compound to the glass substrate. Control plates were treated identically using only the acetone vehicle. A translucent plastic cup was placed over the coated surface to contain mosquitoes during exposure. A flap was cut into the base of the cup to allow the introduction of mosquitoes. Plates were used for 1 d and discarded. For exposures, 15-25 mosquitoes were introduced through the cup flap using a mouth aspirator and incubated on the treated surface for 6-60 min depending on the experimental parameters. Exposure plates were agitated once during exposure to discourage resting on the untreated walls and base of the cup. After exposure, plates were transferred to a clean 17.5 cm^3 cage (Bugdorm™, Megaview Science. Co. Taiwan).
Plasmodium falciparum Infection Assays. 5-d old An. gambiae females were exposed to compounds as described above. Immediately after exposure, females were transferred to a sealed, secure infection glovebox and provided an in vitro culture P. falciparum (NF54) gametocytes (1, 2) through a custom made, glass, water-heated membrane feeder. […] At 7-9 d post infectious blood meal (pIBM), females that had blood fed were vacuum aspirated into 80% ethanol, incubated for 10 minutes at −20° C., and transferred out of the secure feeding box into PBS on ice. Midguts were dissected out in PBS and stained with 0.2% w/v mercurochrome (in ddH2O) for 17 minutes. After staining, midguts were mounted on glass microscope slides in 0.02% w/v mercurochrome, and oocyst prevalence and intensity were determined by examination at 40× air objective on an inverted compound light microscope (Olympus Corporation, Waltham, MA).
Statistical Analysis. All statistical analyses were carried out using GraphPad Prism v7.0 for MacOSX (GraphPad Software Inc., La Jolla CA, USA). For infections, differences in prevalence were analyzed by Chi^2. In experiments where both treatment groups had individuals that produced >0 oocysts, differences in median oocyst burden between groups (intensity of infection) was analyzed using a Mann-Whitney Mean Ranks test. For multiple comparisons (e.g. FIG. 3) differences in prevalence between multiple groups were determined using pair-wise Chi^2 corrected for multiple comparisons (Bonferroni). Similarly, multiple comparisons of intensity were carried out using Wilcoxon with Dunn's post hoc. To determine IC50 from dose-response data, the mean relative inhibition (ATQ exposed prevalence/Control prevalence) was calculated for each tested dose and fit with a sigmoidal curve function using non-linear regression.

An. gambiae females = assay: Survival assays of An. gambiae females after compound exposure (acute 48 h and long-term); type: in vivo, Anopheles gambiae; conditions: for proportionate survival relative to controls: 1 mmol/m2, 60 minutes exposure, 48 h after exposure
Procedure: as §1
Survival Assays. To assess acute survival following exposure: 40, females were exposed (as described above) to ATQ, PYR, ACE, HYD permethrin (PER) for 1 h at a dosage of 1 mmol/m^2 for each compound. […] Immediately after exposure, each treatment group was transferred to a 500 ml paper cup and provided with glucose. At 48 h post exposure the proportion of surviving mosquitoes in each group was determined. Differences in survival between control and compound-exposed mosquitoes were detected using Chi^2 analysis. For long-term survival, ˜100 ATQ- or control-exposed females were placed in clean 17.5 cm^3 cages (Bugdorm™, Megaview Science. Co., Taiwan). Water and a 10% w/v glucose solution was provided ad libitum. Cages were checked daily for mortality, and dead mosquitos were removed and counted. Each experiment continued until all mosquitoes had died. Differences in median time-to-death between ATQ and control treatment groups were analyzed using a Log-Rank Mantell-Cox test.

[1] = test system: susceptible An. gambiae mosquitoes; conditions: 60-minute tarsal exposure; cited from earlier work
[2] = 10 μmol/m^2, 60 minutes exposure
[3] = 1 mmol/m2, 60 minutes exposure immediately prior to infection

Row | Compound | effect on prevalence of P. falciparum relative to controls (P. falciparum) | reduction of oocyst prevalence relative to controls (P. falciparum) | proportionate survival relative to controls (An. gambiae females) | further results
1 | CCCCCCCCCCCCC1=C(OC(C)=O)C(=O)c2ccccc2C1=O [ACE, acequinocyl] | strongly reduced prevalence | 64.3% | 1.059 | 
2 | O=C1C(O)=C([C@H]2CC[C@H](c3ccc(Cl)cc3)CC2)C(=O)c2ccccc21 [ATQ, atovaquone] |  |  | 0.975 | inhibition of intensity of infection compared to controls (P. falciparum; [2]): 87.5%; inhibition of prevalence of infection compared to controls (P. falciparum; [2]): 87.6%; oocyst intensity (P. falciparum; 100 μmol/m2, 6 min exposure): 0%; prevalence of infection (P. falciparum oocysts) (P. falciparum; 100 μmol/m2, 6 min exposure): 0%; oocyst intensity (P. falciparum; 1 mmol/m2, 6 min exposure): 0%; prevalence of infection (P. falciparum oocysts) (P. falciparum; 1 mmol/m2, 6 min exposure): 0%; oocyst intensity (P. falciparum; [3]): 0%; prevalence of infection (P. falciparum oocysts) (P. falciparum; [3]): 0%; IC50 of pre-infection exposure (surface concentration; prevalence of infection) (P. falciparum; 60 minutes tarsal exposure, interpolated from dose-response curve): 1.77 μmol/m^2; effect on acute or long-term survival of An. gambiae females (An. gambiae females; ATQ- vs control-exposed females, followed until death): no effect
3 | CCCCCCCCCCOc1cc2c(O)c(C(=O)OCC)cnc2cc1OCC [DEC, decoquinate] | no detectable effect on infection; also recorded: Neither compound is capable of reducing the prevalence |  | 1.084 | 
4 | CC1(C)CNC(=NN=C(/C=C/c2ccc(C(F)(F)F)cc2)/C=C/c2ccc(C(F)(F)F)cc2)NC1 [HYD, hydramethylnon] | strongly reduced prevalence | 63.9% | 0.976 | 
5 | CCc1nc(N)nc(N)c1-c1ccc(Cl)cc1 [PYR, pyrimethamine] |  |  | 1.000 | 
6 | CC1(C)C(C=C(Cl)Cl)C1C(=O)OCc1cccc(Oc2ccccc2)c1 (stereo not shown) [permethrin] |  |  | 0.055 | LC50 [1]: 63 μmol/m^2
